Test results taken from patent US5328921A, “Aryl pyridinium compounds which are useful in treating shock” (American Cyanamid Company, priority 1992, dated 1994).
Where “and” joins values, the source holds several entries; their conditions need not be identical. Identical values can stand only once. Counter-ions that a name gives are not always drawn.

Assays:
[1] = system: PAF induced lethality in mice; test: PAF induced lethality in mice; type: in vivo; settings: 0.5 mg/kg IP 1/2 hour before lethal PAF I.V. challenge, alive after 2 hours, control (saline) 10; for responders at 0.5 mg/kg: Mus musculus, read-out: % Survival
Protocol: PAF given I.V. to mice causes an immediate hypotensive shock leading to death in 1 hour or less. Compounds are given intraperitoneally at 1/2 hour prior to the PAF challenge. Animals alive after 2 hours are counted and the activity of test compounds expressed as survival corrected for any control (saline treated) animals which survived the PAF challenge.

PAF receptor = target: T1, PAF receptor (Oryctolagus cuniculus, UniProt G1TEI7); test: In vitro PAF antagonism: inhibition of PAF induced platelet aggregation in rabbit platelet rich plasma; type: cell-based, rabbit (male New Zealand White); settings: rabbit PRP; for % INH (% of inhibition of PAF induced platelet aggregation): Dose 1.00E-05 M
T1 construct: centrifuged at 800 rpm for 10-15 minutes at room temperature to recover the platelet rich plasma (PRP); endogenous in cells; host or cells: rabbit platelets (platelet rich plasma from citrated blood of male New Zealand White rabbits)
Protocol: Test compounds are evaluated as PAF receptor antagonists in vitro by measuring inhibition of PAF (platelet activating factor) induced platelet aggregation. Platelet aggregation is measured by a modification of the method described in A. Wissnet, et. al., J. Med. Chem., 27 1174, 1984.
Approximately 120-240 ml of blood is collected by cardiac puncture from unanesthetized male New Zealand White rabbits (Whaley's Summit View Farms, Belvedere, N.J.) with the use of 3.2% sodium citrate anticoagulant (1 part of citrate/10 parts of blood). All syringes and pipers are plastic. The blood is gently mixed and immediately centrifuged at 800 rpm for 10-15 minutes at room temperature to recover the platelet rich plasma (PRP). Platelet poor plasma (PPP) is prepared by centrifuging PRP at 2800 rpm for 10 minutes at room temperature.
Dilutions (113000) of PRP in Isoton, diluent are made and platelet counts are determined on a Coulter Thrombocounter which is standardized with platelet reference standards (Interscience Platelet Control, Portland, Oreg.). PRP platelet counts are adJusted to approximately 400,000-500,000 platelets/11 by the addition of PPP.
L-PAF (Platelet Activating Factor) is obtained from Calbiochem. A stock solution of 1-2 E-3M is prepared in 10% ethanol in water or 100% methanol and serial working dilutions are made using saline. E-3M stock solutions of test compounds are prepared in 100% methanol and serially diluted in PBS. Sonication of samples before testing in biological screens assists in the solubility of compounds in the liquid medium. All solutions are made up in plastic tubes, stored on ice and protected from heat and light. Solutions are prepared fresh or frozen at -20° C. and used within 48 hours.
Incubation mixtures consisted of 400 11 PRP, 50 11 of saline diluent or test compound and 50 11 of PAF agohist. More specifically, 40011 of PRP is stabilized in a cuvette for 1-2 minutes at 37° C. in the aggregometer to achieve a stable baseline, then 50 11 of saline or test compound is added and incubated for 5 minutes before addition of the challenge concentration of PAF. A submaximal concentration is determined from the dose response curve for PAF for that experiment. In general, the challenge concentration is 5E-8 or 1E-7M. Aggregation is monitored for 5 minutes. Samples containing test compound or diluent are run simultaneously for comparison. Test compounds are initially evaluated at a screening concentration of 1E-SM.
The recording equipment consists of a dual channel Chronolog aggregometer connected to a dual channel 10MV full scale deflection Omniscribe chart recorder (Houston Instruments). The chart recorder is calibrated daily with the use of a suspension of Bio-Rad latex beads (S-X 12 400 mesh) which has a density slightly greater than rabbit PRP. The bead suspension is used to set the 0% light transmission mark and clear water is used to set the 100% light transmission mark. These limits defined a full scale deflection. The aggregation traces are analyzed by a digitizing method (C. Kohler and B. Zoltan, J. Pharm. Methods, 12, 113, 1984) with x, y coordinate data stored in a computer file. A suitable program computes parameters of interest such as the magnitude of aggregation.

T1 sequence (G1TEI7 1-342): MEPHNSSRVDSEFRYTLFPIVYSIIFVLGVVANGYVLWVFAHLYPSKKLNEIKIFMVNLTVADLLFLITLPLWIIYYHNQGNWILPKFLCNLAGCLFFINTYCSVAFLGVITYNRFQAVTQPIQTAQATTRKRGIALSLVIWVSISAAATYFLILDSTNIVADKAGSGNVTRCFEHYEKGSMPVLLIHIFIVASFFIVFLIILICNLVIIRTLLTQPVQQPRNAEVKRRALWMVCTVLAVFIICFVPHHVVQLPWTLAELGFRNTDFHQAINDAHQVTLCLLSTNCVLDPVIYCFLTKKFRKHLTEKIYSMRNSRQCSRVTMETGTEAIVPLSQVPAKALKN

| Compound | IC50 (PAF receptor; PAF challenge 5.00E-08 M) | responders at 0.5 mg/kg [1] | other results |
| --- | --- | --- | --- |
| 2-[[Acetyl[[4-(tetradecyloxy)-benzoyl]methyl]amino]methyl]-1-ethylpyridinium iodide |  |  | % Survival [1]: 40% |
| CCCCCCCCCCCCCCCCOc1ccc(OCC(=O)NCCc2cccc[n+]2CC)cc1 [1-Ethyl-2-[2-[[[4-(hexadecyloxy)phenoxy]acetyl]-amino]ethyl]pyridinium iodide] | 2.7 µM and 3.2 µM |  | IC50 (PAF receptor; PAF challenge 1.00E-07 M): 4.64 µM |
| CCCCCCCCCCCCCCCCOc1ccc(OCC(=O)NCc2cccc[n+]2CC)cc1 [1-Ethyl-2-[[[[4-(hexadecyloxy)phenoxy]acetyl]amino]-methyl]pyridinium iodide] | 7.2 µM and 5.6 µM |  |  |
| CCCCCCCCCCCCCCOc1ccc(C(=O)NCCc2cccc[n+]2C)cc1 [1-Methyl-2-[2-[[4-(tetradecyloxy)benzoyl]amino]-ethyl]pyridinium iodide] |  |  | IC50 (PAF receptor; PAF challenge 1.00E-08 M): 14 µM |
| CCCCCCCCCCCCCCOc1ccc(CC(=O)NCCc2cccc[n+]2C)cc1 [1-Methyl-2-[2-[[[4-(tetradecyloxy)phenyl]acetyl]-amino]ethyl]pyridinium iodide] | 15 µM |  |  |
| CCCCCCCCCCCCCCOc1ccc(C(=O)N(Cc2cccc[n+]2C)S(C)(=O)=O)cc1 [1-Methyl-2-[[(methylsulfonyl)[4-(tetradecyloxy)-benzoyl]amino]methyl]pyridinium salt with trifluoromethanesulfonic acid (1:1)] |  | 88% |  |
| CCCCCCCCCCCCCCOc1ccc(CN(Cc2cccc[n+]2C)S(C)(=O)=O)cc1 [1-Methyl-2-[[(methylsulfonyl)[[4-(tetradecyloxy)-phenyl]methyl]amino]methyl]pyridinium iodide] |  | 55% |  |
| CCCCCCCCCCCCCCOc1ccc(C(=O)NCc2cccc[n+]2C)cc1OCCCCCCCCCCCCCC [1-Methyl-2-[[[3,4-bis(tetradecyloxy)benzoyl]amino]-methyl]pyridinium iodide] |  | 0% |  |
| CCCCCCCCCCCCCCOc1ccc(CN(C(=O)c2ccc[n+](C)c2)c2ccccc2)cc1 [1-Methyl-3-[[phenyl[[4-(tetradecyloxy)phenyl]methyl]-amino]carbonyl]pyridinium iodide] |  | 69% |  |
| CCCCCCCCCCCCCCOc1ccc(CNC(=O)c2cc[n+](C)cc2)cc1 [1-Methyl-4-[[[[4-(tetradecyloxy)phenyl]methyl]amino]-carbonyl]pyridinium iodide] | 60 µM |  |  |
| CCCCCCCCCCCCCCOc1ccc(C(=O)N(Cc2cccc[n+]2C)C(=O)c2ccccc2OC)cc1 [2-[[(2-Methoxybenzoyl)[4-(tetradecyloxy)]benzoyl]-amino]methyl]-1-methylpyridinium iodide] | 1.5 µM |  | % INH (% of inhibition of PAF induced platelet aggregation) (PAF receptor; PAF challenge 5.00E-08 M): 0% |
| CCCCCCCOc1ccc(C(=O)N(Cc2cccc[n+]2C)C(C)=O)cc1OCCCCCCC [2-[[Acetyl[3,4-bis(heptyloxy)benzoyl]amino]methyl]-1-methylpyridinium iodide] |  | 45% |  |
| CCCCCCCCCCCCCCOc1ccc(C(=O)N(Cc2cccc[n+]2C)C(C)=O)cc1OCCCCCCCCCCCCCC [2-[[Acetyl[3,4-bis(tetradecyloxy)benzoyl]amino]-methyl]-1-methylpyridinium iodide] |  | 36% |  |
| CCCCCCCCCCCCCCOc1ccc(C(=O)N(Cc2cccc[n+]2C)C(C)=O)cc1C(C)(C)C [2-[[Acetyl[3-(1,1-dimethylethyl)-4-(tetradecyloxy)-benzoyl]amino]methyl]-1-methylpyridinium iodide] | 0.0215 µM | 60% | IC50 (PAF receptor; PAF challenge 1.00E-07 M): 0.0141 µM and 0.036 µM |
| CCCCCCCCCCCCCCOc1ccc(C(=O)N(Cc2cccc[n+]2CC)C(C)=O)cc1OC.[I-] [2-[[Acetyl[3-methoxy-4-(tetradecyloxy)benzoyl]amino]-methyl]-1-ethylpyridinium iodide] | 0.0703 µM and 0.24 µM | 29% | % INH (% of inhibition of PAF induced platelet aggregation) (PAF receptor; PAF challenge 5.00E-08 M): 95% |
| CCCCCCCCCCCCCCOc1ccc(C(=O)N(Cc2cccc[n+]2C)C(C)=O)cc1OC [2-[[Acetyl[3-methoxy-4-(tetradecyloxy)benzoyl]amino]-methyl]-1-methylpyridinium iodide] | 0.0636 µM | 43% |  |
| CCCCCCCCCCCCCCOc1ccc(C(=O)N(Cc2cccc[n+]2Cc2ccccc2)C(C)=O)cc1 [2-[[Acetyl[4-(tetradecyloxy)benzoyl]amino]methyl]-1-(phenylmethyl)pyridinium bromide] | 300 µM | 0% |  |
| CCCCCCCCCCCCCCOc1ccc(C(=O)N(Cc2cccc[n+]2C)C(C)=O)cc1.[I-] [2-[[Acetyl[4-(tetradecyloxy)benzoyl]amino]methyl]-1-methylpyridinium iodide] | 0.86 µM and 0.7 µM and 0.96 µM and 1.3 µM | 27% | % INH (% of inhibition of PAF induced platelet aggregation) (PAF receptor; PAF challenge 5.00E-08 M): 0% |
| CCCCCCCCCCCCCCOc1cc(C(=O)N(Cc2cccc[n+]2C)C(C)=O)ccc1OC [2-[[Acetyl[4-methoxy-3-(tetradecyloxy)benzoyl]-amino]methyl]-1-methylpyridinium iodide] | 160 µM | 21% |  |
| CCCCCCCCCCCCCCOc1ccccc1CN(Cc1cccc[n+]1C)C(C)=O [2-[[Acetyl[[2-(tetradecyloxy)phenyl]methyl]amino]-methyl]-1-methylpyridinium iodide] | 43 µM | 23% |  |
| CCCCCCCCCCCCCCCCOc1ccc(OCC(=O)N(Cc2cccc[n+]2C)C(C)=O)cc1 [2-[[Acetyl[[4-(hexadecyloxy)phenoxy]acetyl]amino]-methyl]-1-methylpyridinium iodide] | 280 µM |  |  |
| CCCCCCCCCCCCCCOc1ccc(CN(Cc2cccc[n+]2CC)C(C)=O)cc1 [2-[[Acetyl[[4-(tetradecyloxy)phenyl]methyl]amino]-methyl]-1-ethylpyridiniumiodide] |  |  | IC50 (PAF receptor; PAF challenge 1.00E-07 M): 13 µM |
| CCCCCCCCCCCCCCOc1ccc(COC(=O)N(Cc2cccc[n+]2C)C(C)=O)cc1 [2-[[Acetyl[[[4-(tetradecyloxyphenyl]methoxy]-carbonyl]amino]methyl]-1-methylpyridinium iodide] |  | 40% |  |
| CCCCCCCCCCCCCCOc1ccc(C(=O)N(Cc2ccc[n+](C)c2)C(C)=O)cc1C(C)(C)C [3-[[Acetyl[3-(1,1-dimethylethyl)-4-(tetradecyloxy)-benzoyl]amino]methyl]-1-methylpyridinium iodide] | 20 µM |  |  |
| CCCCCCCCCCCCCCOc1ccc(C(=O)N(Cc2ccc[n+](C)c2)C(C)=O)cc1 [3-[[Acetyl[4-(tetradecyloxy)benzoyl]amino]methyl]-1-methylpyridinium iodide] | 6.8 µM |  |  |
| CCCCCCCCCCCCCCOc1ccc(N(Cc2ccc[n+](C)c2)C(C)=O)cc1 [3-[[Acetyl[4-(tetradecyloxy)phenyl]amino]methyl]-1-methylpyridinium iodide] |  | 7% |  |
| CCCCCCCCCCCCCCOc1ccc(CN(Cc2ccc[n+](C)c2)C(C)=O)cc1 [3-[[Acetyl[[4-(tetradecyloxy)phenyl]methyl]amino]-methyl]-1-methylpyridinium iodide] |  | 38% | IC50 (PAF receptor; PAF challenge 1.00E-08 M): 14 µM |
| CCCCCCCCCCCCCCOc1ccc(CN(C(=O)c2ccc[n+](CCC)c2)c2ccccc2)cc1 [3-[[Phenyl[[4-(tetradecyloxy)phenyl]methyl]amino]-carbonyl]-1-propylpyridinium iodide] |  | 64% |  |
| CCCCCCCCCCCCCCOc1ccc(CN(Cc2cc[n+](C)cc2)C(C)=O)cc1 [4-[[Acetyl[[4-(tetradecyloxy)phenyl]methyl]amino]-methyl]-1-methylpyridinium iodide] | 1 µM |  |  |
